Laboratory results taken from PMC12527977, “Discovery of a novel tetrapeptide as glucose homeostasis modulator with bifunctionalities of targeting DPP‐IV and microbiota” (iMeta, 2025).
Several values for one entry are separate records, joined by “and”; a condition that tells them apart may be missing. Identical values can stand only once. Counter-ions that a name gives are not always drawn.

Experiments:
HFD-fed C57BL/6J mice [1] = test: HFD-fed mice, TPH/sitagliptin/HSP 8 weeks: FBG, OGTT, fasting insulin, HOMA-IR; format: in vivo, mouse; parameters: unit not given here; settings: 8 weeks p.o. (Sit 12.5, TPH 80, HSP 320 mg/kg)
Procedure: (§1) To evaluate the hypoglycaemic activity of TPH, all mice were fed a high-fat diet (HFD, Research Diets, cat# D12492).
Oral glucose tolerance tests (OGTTs) were conducted following a 6-hour fasting period in mice. Blood glucose levels were assessed using a glucometer on tail vein blood samples at 0, 15, 30, 60, and 90 min after oral glucose administration with a dosage of 1.5 g/kg body weight. For insulin tolerance tests (ITTs), mice were intraperitoneal injected with insulin (0.8 U/kg body weight) after 6 h of fasting. […] The levels of active GLP-1, total GLP-1, and insulin were measured using the corresponding kits and normalized to the protein concentration (via a BCA protein assay).

HFD-fed C57BL/6J mice [2] = test: HFD-fed mice, TPH/sitagliptin/HSP 8 weeks: plasma NEFA, TG, TC, HDL-c, LDL-c; format: in vivo, mouse; settings: individual animals, n = 6, sheet S1U, listed as Sit
Procedure: as §1
The levels of plasma total cholesterol (TC), triacylglycerol (TG), high-density lipoprotein cholesterol (HDL-c), low-density lipoprotein cholesterol (LDL-c), nonesterified fatty acid (NEFA), tumour necrosis factor α (TNF α), and interleukin-1β (IL-1β) were determined by commercial kit (Nanjing Jiancheng Bioengineering Institute, Nanjing, China).

[3] = tested on: gut microbiota, A. muciniphila; test: HFD-fed mice, TPH or sitagliptin 8 weeks: gut microbiota (16S rRNA); format: in vivo, mouse; settings: in words, 8 weeks p.o.
Text: To evaluate the hypoglycaemic activity of TPH, all mice were fed a high-fat diet (HFD, Research Diets, cat# D12492). […] Raw sequencing data were processed with QIIME2. In brief, the forward and reverse reads each were truncated at 200 bases. Taxonomy was assigned using the Greengenes reference (version 13.8) database. Analyses of alpha diversity (one-way ANOVA followed by Tukey’s post hoc test), beta diversity (weighted UniFrac distance followed by ANOSIM test), and bacterial taxonomic distributions were performed using MicrobiomeAnalyst.

A. muciniphila [4] = test: HFD-fed mice, VAMP and/or benzydamine 4 weeks: A. muciniphila abundance in faeces (qPCR); format: in vivo, mouse; settings: in words, 50 mg/kg three times per week for 4 weeks
A. muciniphila [5] = test: Effect of different drugs (50 μM) on the growth of A. muciniphila; format: cell-based, Akkermansia muciniphila; settings: in words; drugs at 50 μM

In the case of `N[C@@H](CC(=O)N1CCn2c(nnc2C(F)(F)F)C1)Cc1cc(F)c(F)cc1F` [Sitagliptin], the “AUC of the OGTT” value (HFD-fed C57BL/6J mice [1]; mouse 1 of group) is reported as 27513, the “Levels of fasting insulin” value (HFD-fed C57BL/6J mice [1]; mouse 1 of group) is reported as 31.21 and the “AUC of the OGTT” value (HFD-fed C57BL/6J mice [1]; mouse 2 of group) is reported as 22668. The “Levels of fasting insulin” value (HFD-fed C57BL/6J mice [1]; mouse 2 of group) was 34.42, the “AUC of the OGTT” value (HFD-fed C57BL/6J mice [1]; mouse 3 of group) was 23854.5 and the “Levels of fasting insulin” value (HFD-fed C57BL/6J mice [1]; mouse 3 of group) was 37.914. The “AUC of the OGTT” value (HFD-fed C57BL/6J mice [1]; mouse 4 of group) was 21897, the “Levels of fasting insulin” value (HFD-fed C57BL/6J mice [1]; mouse 4 of group) was 32.691 and the “AUC of the OGTT” value (HFD-fed C57BL/6J mice [1]; mouse 5 of group) was 22426.5. The “Levels of fasting insulin” value (HFD-fed C57BL/6J mice [1]; mouse 5 of group) was 36.21, the “AUC of the OGTT” value (HFD-fed C57BL/6J mice [1]; mouse 6 of group) was 19386 and the “Levels of fasting insulin” value (HFD-fed C57BL/6J mice [1]; mouse 6 of group) was 32.691. The “Plasma HDL-c” value (HFD-fed C57BL/6J mice [2]) was 2.289 and 2.058 and 2.182 and 2.361 and 2.149 and the “Abundance of A. muciniphila in the intestine” value [3] was “no effect”.

`CN(C)CCCOc1nn(Cc2ccccc2)c2ccccc12` [benzydamine, benzydamine hydrochloride] was tested, and the “Abundance of A. muciniphila in faeces” value (A. muciniphila [4]) was “reduced the abundance of A. muciniphila to an extremely low level” and the “Growth of A. muciniphila” value (A. muciniphila [5]) was “specifically inhibit the growth of A. muciniphila”.
